The record followed here is US12286401B2, “Small molecules that sensitize HIV-1 infected cells to antibody dependent cellular cytotoxicity” (THE TRUSTEES OF THE UNIVERSITY OF PENNSYLVANIA, priority 2018, dated 2025).

Series [1] has as its system CH58TF infected primary CD4+ T-cells. Nature of the series: Recognition of HIV-1 infected cells by 17b (flow cytometry cell-surface staining). In kind it is cell-based. As to conditions: for fold induction at 50 µM: Human immunodeficiency virus 1, T-cell, read-out: Fold Over DMSO (17b, n = 1). The procedure: (§1) Cell-surface staining of primary CD4+ T cells from healthy HIV uninfected individuals or CEM-NKr cells is performed, as described in Prevost, “Influence of the Envelope gp120 Phe 43 Cavity on HIV-1 Sensitivity to Antibody-Dependent Cell-Mediated Cytotoxicity Responses,” 2017, J. Virol 91; Richard, “CD4 mimetics sensitize HIV-1-infected cells to ADCC,” 2015, Proc. Natl. Acad. Sci. USA, 112:E2687-2694; Richard, “Small CD4 Mimetics Prevent HIV-1 Uninfected Bystander CD4+ T Cell Killing Mediated by Antibody-dependent Cell-mediated Cytotoxicity,” 2016, EBioMedicine 3:122-134; Veillette, “The HIV-1 gp120 CD4-Bound Conformation Is Preferentially Targeted by Antibody-Dependent Cellular Cytotoxicity-Mediating Antibodies in Sera from HIV-1-Infected Individuals,” 2015, J. Virol., 89:545-551; Veillette, “Interaction with cellular CD4 exposes HIV-1 envelope epitopes targeted by antibody-dependent cell-mediated cytotoxicity,” 2014, J. Virol., 88:2633-2644; Richard, “Uninfected Bystander Cells Impact the Measurement of HIV-Specific Antibody-Dependent Cellular Cytotoxicity Responses,” 2018, MBio. 9(2): e00358-18; Richard, “BST-2 Expression Modulates Small CD4-Mimetic Sensitization of HIV-1-Infected Cells to Antibody-Dependent Cellular Cytotoxicity,” 2017, J. Virol. 91(11):e00219-17. Binding of HIV-1 infected cells by HIV+ sera (1:1000 dilution) or anti-Env Abs (such as 17b) is performed […] in vitro infection at 37° C. in presence of different concentrations of the MCG analogs or with equivalent volume of vehicle (DMSO). Cells infected with HIV-1 primary isolates are stained intracellularly for HIV-1 p24 using the Cytofix/Cytoperm Fixation/Permeabilization Kit (BD Biosciences, Mississauga, ON, Canada) and then fluorescent anti-p24 mAb (PE-anti-p24, clone KC57; Beckman Coulter/Immunotech, Hialeah, FL) (1:100 final concentration). The percentage of infected cells (p24^+ or GFP+ cells) is determined by gating the living cell population based on the viability dye staining. Samples are analyzed on an LSRII cytometer (BD Biosciences, Mississauga, ON, Canada) and data analysis is performed using FlowJo vX0.7 (Tree Star, Ashland, OR, USA).
(§2) Briefly, Primary CD4 T cells isolated from PBMC were infected with HIV-1CH58TF for 48 hours. For cell surface staining, 5 μg/ml 17b (FIG. 15A) or 1:1000 diluted HIV+ plasma (n=15) (FIG. 15B) were used in the presence of the different MCG analogs (50 μM), (+)-BNM-III-170 or with an equivalent volume of vehicle (DMSO). An Alexa Fluor 647-conjugated anti-human IgG secondary Ab was then used for fluorescent labeling. For ADCC (FIG. 15C), infected cells were used as target cells in a FACS-based ADCC assay that measures the killing of infected (p24+ cells). See, Madani, 2016, J. Virol., 90:5031-5046. The assay determines susceptibility to ADCC mediated by a 1/1,000 dilution of plasma from 15 HIV-1-infected individuals in the presence of the different MCG analogs (50 μM), (+)-BNM-III-170 (50 μM) or with an equivalent volume of vehicle (DMSO). Correlation between cell-surface staining with HIV+ plasma and ADCC was calculated using the Spearman rank correlation (FIG. 15D).

Series [2] shares this test system. Nature of the series: HIV+ patient sera/plasma recognition of CH58TF infected primary CD4+ T-cells (flow cytometry cell-surface staining). The conditions noted are these: for fold induction at 50 µM: Human immunodeficiency virus 1, T-cell, read-out: Fold Over DMSO (patient sera, n = 3). It is filed as cell-based, HIV-1. The procedure:
as §1
HIV+ Patient Sera (n=3) Recognition of CH58TF Infected Primary CD4+ T-Cells
Staining with patient sera and 50 μM of compounds given as a fold change over DMSO (vehicle).
as §2
A general note: In flow cytometry, cells or beads pass a laser one at a time.

The test system of series [3] is HIV-1JR-FL EnvΔCT expressed at the surface of HOS cells. Briefly: Cell-based ELISA (CBE), 17b readout. As to conditions: MCG analogs 50 μM; BNM-III-170 5 μM; 2G12 and DMSO normalized. Here is the method:
Detection of trimeric HIV-1 Env at the surface of HOS cells was performed by cell-based ELISA, as described in Desormeaux, “The highly conserved layer-3 component of the HIV-1 gp120 inner domain is critical for CD4-required conformational transitions,” J. Virol. 87:2549-2562; Alsahafi, “Effects of the I559P gp41 change on the conformation and function of the human immunodeficiency virus (HIV-1) membrane envelope glycoprotein trimer,” 2015, PLoS One 10:e0122111; and Veillette, “Conformational evaluation of HIV-1 trimeric envelope glycoproteins using a cell-based ELISA assay,” 2014, J. Vis. Exp., 91:51995. To enhance cell-surface expression of HIV-1 EnvRF a stop codon was introduced to replace the codon for Gly 711, truncating the cytoplasmic tail (ACT). Briefly, HOS cells were seeded in T-75 flasks (3×10^6 cells per flask) and transfected the next day with 22.5 μg of Env-expressing plasmids (wild-type and mutants S375W, S375T, H66A, A582T/L587A, etc) using the standard polyethylenimine (PEI, Polyscience Inc, PA, USA) transfection method. Twenty-four hours after transfection, cells were plated in 384-wells plates (2×10^4 cells per well). One day later, cells were washed twice with blocking buffer (10 mg/mL non-fat dry milk, 1.8 mM CaCl2), 1 mM MgCl2, 25 mM Tris, pH 7.5 and 140 mM NaCl) and then incubated for 30 minutes at room temperature with different concentrations of MCG analogs or equivalent volume of vehicle (DMSO). Cells were then incubated for an additional 1 h at room temperature with anti-HIV-1 Env monoclonal antibodies recognizing CD4-induced gp120 epitopes (17b, A32), CD4-binding site gp120 epitopes (VRC03, VRC01, F105, and b12), gp120 V3 glycans (19b, PGT126, PGT122, and 10.1074), gp120 outer domain (2G12), and gp120-gp41 interface (PGT151 and VRC34) epitopes. All ligands were diluted in blocking buffer. A horseradish peroxidase-conjugated antibody specific for the Fc region of human or mouse IgG (Pierce) was then incubated with the samples for 45 minutes at room temperature. For all conditions, cells were washed 5 times with blocking buffer and 5 times with washing buffer (1.8 mM CaCl2), 1 mM MgCl2, 25 mM Tris, pH 7.5 and 140 mM NaCl). HRP enzyme activity was determined after the addition of 20 μl per well of a 1:1 mix of Western Lightning oxidizing and luminol reagents (Perkin Elmer Life Sciences). Light emission was measured with an LB 941 TriStar luminometer (Berthold Technologies) and analysis with Graph Pad software.
The data of Table 2 is given as the fold over BNM-III-170 (5 μM) of Cell-Based ELISA with MCG Analogs (50 μM)—17b readout, 2G12 and DMSO normalized.
To identify molecules able to expose vulnerable Env epitopes, a cell-based ELISA (CBE) assay was adapted, capable of measuring conformational changes of membrane-bound trimeric Env as described in Veillette, 2014, J. Vis. Exp. doi:10.3791/51995:51995; Haim, 2011, PLoS Pathog 7:e1002101, into a high-throughput screening (HTS) platform (FIG. 10A). Briefly, the cytoplasmic-tail deleted HIV-1JR-FL Tier-2/3 Env was expressed on the surface of HOS cells in a 384-well-plate format. The cytoplasmic tail of Env was deleted to enhance Env expression at the cell surface and therefore enhance the sensitivity of the CBE assay. See, Veilette and Haim, 2009, PLoS Pathog 5:e100036. Small molecules or, as a positive control, soluble (sCD4) were added to expose the HIV-1JR-FL EnvΔCT epitope that can be recognized by the CD4i antibody 17b. See, Wyatt, 1995, J. Virol. 69:5723-5733; Rizzuto, 1998, Science 280:1949-1953.
17b binding was detected by a horseradish peroxidase-conjugated (HRP) second antibody, and HRP enzyme activity was measured by Western Lightning oxidizing and luminal reagents. 17b binding in the presence of sCD4 was set as the control (FIG. 10B, blue dots), small molecules that enhanced 17b binding above 25% of the one induced by sCD4 were retested in quadruplicate and only one molecule (UM0059920) was deemed a true positive (FIG. 10B, red dots). […]

A short description of series [4]: Solubility in PBS. In kind it is physicochemical. The conditions noted are these: Yes/NO.

For `O=C(Nc1ccc(Cl)c(Br)c1)[C@H]1CCCN(S(=O)(=O)c2ccccc2)C1` [(S)-MCG-III-085-D05], the fold induction at 50 µM in series [1] turned out to be 5.58; in series [2] it was 1.55. Further, the “Fold over BNM-III-170 - 17b binding (±0.05)” value (“Fold … (±0.05)” for short) in series [3] is 0.10 fold.

For the compound `O=C(Nc1ccc(Br)c(Cl)c1)[C@H]1CCCN(S(=O)(=O)c2ccccc2)C1` [(S)-MCG-III-085-D06], the fold induction at 50 µM worked out at 6.46 in series [1] and 2 in series [2]. For the same compound, the “Fold … (±0.05)” value in series [3] is listed as 0.19 fold.

Regarding `O=C(Nc1ccc(Cl)c(F)c1)[C@H]1CCCN(S(=O)(=O)C(F)(F)F)C1` [(S)-MCG-III-132], in series [2], the fold induction at 50 µM amounted to 1.58. For the same compound, the “Solubility (in PBS)” value in series [4] is reported as “Yes”. Moreover, the “Fold … (±0.05)” value in series [3] was determined as 0.27 fold.

As to `O=C(Nc1ccc(Cl)c(F)c1)[C@H]1CCCN(C(=O)Oc2ccccc2)C1` [(S)-MCG-III-188-A03], the fold induction at 50 µM in series [1] turned out to be 3.11; in series [2], 4.61. Further, the “Fold … (±0.05)” value in series [3] came to 0.47 fold.

Turning to `O=C(Oc1ccc(Cl)c(F)c1)[C@H]1CCCN(S(=O)(=O)c2ccccc2)C1` [(S)-MCG-III-213-A03], the fold induction at 50 µM in series [1] came out at 0.928; in series [2] it was 1.08. Also, in series [3], the “Fold … (±0.05)” value is given as 0.05 fold.

For `CS(=O)(=O)N1CCC(C(=O)Nc2ccc(Cl)c(F)c2)C1` (stereo not drawn) [MCG-III-157-A01], the fold induction at 50 µM in series [2] stood at 1.85. In series [4], the “Solubility (in PBS)” value is “Yes”. Besides, the “Fold … (±0.05)” value in series [3] amounted to 0.36 fold.

For `CCS(=O)(=O)N1CCC(C(=O)Nc2ccc(Cl)c(F)c2)C1` (stereo not drawn) [MCG-III-157-A02], the fold induction at 50 µM in series [2] was determined as 1.64. Besides, the “Solubility (in PBS)” value in series [4] is recorded as “Yes”. For the same compound, the “Fold … (±0.05)” value in series [3] was 0.27 fold.

For the compound `Cn1cnc(S(=O)(=O)N2CCC(C(=O)Nc3ccc(Cl)c(F)c3)C2)c1` (stereo not drawn) [MCG-III-157-A04], the fold induction at 50 µM in series [2] was determined as 1.28. In addition, the “Solubility (in PBS)” value in series [4] is “Yes”. Further, in series [3], the “Fold … (±0.05)” value was 0.34 fold.

Turning to `CS(=O)(=O)N1CCCC(C(=O)Nc2ccc(Cl)c(F)c2)C1` (stereo not drawn) [MCG-III-157-B01], the fold induction at 50 µM in series [2] came out at 1.48. The “Solubility (in PBS)” value in series [4] is “Yes”. Besides, in series [3], the “Fold … (±0.05)” value came to 0.42 fold.

As for `CCS(=O)(=O)N1CCCC(NC(=O)c2ccc(Cl)c(F)c2)C1` (stereo not drawn) [MCG-III-157-C02], the fold induction at 50 µM in series [2] was 1.05. Further, in series [4], the “Solubility (in PBS)” value is “Yes”. In addition, in series [3], the “Fold … (±0.05)” value turned out to be 0.07 fold.

`Cn1cnc(S(=O)(=O)N2CCCC(NC(=O)c3ccc(Cl)c(F)c3)C2)c1` (stereo not drawn) [MCG-III-157-C04]: in series [2], the fold induction at 50 µM is 0.897. Besides, in series [4], the “Solubility (in PBS)” value was “Yes”. Also, the “Fold … (±0.05)” value in series [3] is reported as 0.04 fold.

As for `O=C(Nc1ccc(Cl)c(F)c1)C1CNCCO1` (stereo not drawn) [MCG-III-196], the “Fold Over DMSO (17b, n = 1)” value in series [1] (50 μM of compounds, 17b staining) amounted to 2.595 fold. For the same compound, the “Fold Over DMSO (patient sera, n = 3)” value in series [2] (50 μM of compounds, staining with HIV+ patient sera, CH58TF infected primary CD4+ T-cells) is recorded as 1.499 fold. For the same compound, the “Solubility (in PBS)” value in series [4] is on record as “Yes”.

As to `O=C(Nc1ccc(Cl)c(F)c1)C1CN(S(=O)(=O)c2ccccc2)CCO1` (stereo not drawn) [MCG-III-211-A03], the results for the fold induction at 50 µM in series [1] and in series [2] were 2.64 and 1.7, respectively. The “Fold … (±0.05)” value in series [3] is listed as 0.28 fold.

In the case of `CC(C)(C)OC(=O)N1CCN(S(=O)(=O)c2ccccc2)CC1C(=O)Nc1ccc(Cl)c(F)c1` (stereo not drawn) [MCG-III-212-A03], the fold induction at 50 µM in series [1] amounted to 1.1; in series [2] it was 1.24. Also, the “Fold … (±0.05)” value in series [3] was 0.06 fold.

`O=C(Nc1ccc(Cl)c(F)c1)C1Cc2ccccc2N(S(=O)(=O)c2ccccc2)C1` (stereo not drawn) [MCG-III-214-A03]: the figures for the fold induction at 50 µM in series [1] and in series [2] were 0.911 and 1.05, respectively. Also, the “Fold … (±0.05)” value in series [3] is listed as 0.09 fold.

With `Cn1cnc(S(=O)(=O)N2CC(C(=O)Nc3ccc(Cl)c(F)c3)Cc3ccccc32)c1` (stereo not drawn) [MCG-III-214-A04], the fold induction at 50 µM in series [1] came out at 1.15; in series [2], 0.924. Also, the “Fold … (±0.05)” value in series [3] amounted to 0.18 fold.
